Laboratory results published in ChEMBL document CHEMBL5038649, “Chemical Space Expansion of Flavonoids: Induction of Mitotic Inhibition by Replacing Ring B with a 10π-Electron System, Benzo[b]thiophene” (J Nat Prod, 2022).
Calls of active or inactive are those of the source. No cut-off for these calls is given here.

Key:
[1] = tested on: MDA-MB-231; assay: Cell cycle arrest in human MDA-MB-231 cells assessed as accumulation at G2/M phase incubated for 24 hrs by propidium iodide staining based flow cytometric analysis; assay type: functional
[2] = biological target: Tubulin (Homo sapiens) (UniProt P68371+Q9H4B7+P0DPH7+P68366+Q13509+Q71U36+P04350+Q3ZCM7+P07437+P68363+Q9BQE3+Q6PEY2+Q13885+Q9BVA1+Q9BUF5); assay: Induction of microtubule depolymerization in human MDA-MB-231 cells assessed as spindle formation incubated for 24 hrs by immunofluorescence staining based confocal microscopic analysis; assay type: cell-based
[3] = tested on: A549; assay: Antiproliferative activity against human A549 cells assessed as reduction in cell viability after 72 hrs by SRB assay; assay type: functional, cell-based; details: A549, 72 h
[4] = tested on: MDA-MB-231; assay: Antiproliferative activity against human MDA-MB-231 cells assessed as reduction in cell viability after 72 hrs by SRB assay; assay type: functional, cell-based; details: MDA-MB-231, 72 h
[5] = tested on: MCF7; assay: Antiproliferative activity against human MCF7 cells assessed as reduction in cell viability after 72 hrs by SRB assay; assay type: functional, cell-based; details: MCF7, 72 h
[6] = tested on: KB; assay: Antiproliferative activity against human KB cells assessed as reduction in cell viability after 72 hrs by SRB assay; assay type: functional, cell-based
[7] = Antiproliferative activity against human KB-VIN cells assessed as reduction in cell viability after 72 hrs by SRB assay; assay type: functional, cell-based; details: KBVIN

SMILES | Activity [1] | Activity [2] | IC50 [3] [nM] | IC50 [4] [nM] | IC50 [5] [nM] | IC50 [6] [nM] | IC50 [7] [nM]
COc1ccc(/C=C\c2cc(OC)c(OC)c(OC)c2)cc1O | Dose-Dependent Effect | Active | – | – | – | – | –
COc1cc2c(c(OC)c1OC)O/C(=C\c1csc3ccccc13)C2=O | Dose-Dependent Effect | inactive | 590 | 800 | 750 | 610 | 480
O=C(/C=C/c1csc2ccccc12)c1c(O)ccc2ccccc12 | Dose-Dependent Effect | Active | 580 | 800 | 890 | 640 | 480
COc1cc2occ(-c3csc4ccccc34)c(=O)c2c(OC)c1OC | Dose-Dependent Effect | inactive | 640 | 820 | 740 | 820 | 510
